Measured values as given in ChEMBL document CHEMBL3244287, “Adrenergic agents. 4. Substituted phenoxypropanolamine derivatives as potential beta-adrenergic agonists” (J Med Chem, 1977).
Activity calls are given as the source filed them. The rule behind the calls is not given here.

How the values were obtained:
[1] = target: Beta-1 adrenergic receptor (Cavia porcellus) (UniProt B0FL73); test: Agonist activity at beta-1 adrenergic receptor in guinea pig atria assessed as increase in rate of contraction of spontaneously beating right atria at 9 x 10^-5 M
Chain of Beta-1 adrenergic receptor (Cavia porcellus) (B0FL73 1-467): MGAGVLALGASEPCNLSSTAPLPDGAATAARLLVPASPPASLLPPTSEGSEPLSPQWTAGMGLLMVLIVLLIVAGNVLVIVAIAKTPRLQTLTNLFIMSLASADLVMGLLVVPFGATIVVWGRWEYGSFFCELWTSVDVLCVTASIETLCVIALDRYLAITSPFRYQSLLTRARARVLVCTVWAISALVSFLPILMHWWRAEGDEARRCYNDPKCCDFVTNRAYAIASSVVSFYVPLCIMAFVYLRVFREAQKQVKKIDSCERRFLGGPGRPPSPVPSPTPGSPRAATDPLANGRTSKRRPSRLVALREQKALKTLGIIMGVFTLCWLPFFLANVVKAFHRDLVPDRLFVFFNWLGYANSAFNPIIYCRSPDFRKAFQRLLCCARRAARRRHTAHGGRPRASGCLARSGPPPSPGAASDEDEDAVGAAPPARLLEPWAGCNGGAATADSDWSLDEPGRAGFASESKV

[2] = species: Cavia porcellus; test: Selectivity ratio of ED50 for beta-2 adrenergic receptor in guinea pig trachea over ED50 for beta-1 adrenergic receptor in guinea pig atria
[3] = target: Beta-2 adrenergic receptor (Cavia porcellus) (UniProt Q8K4Z4); settings: Trachea
Chain of Beta-2 adrenergic receptor (Cavia porcellus) (UniProt Q8K4Z4) (Q8K4Z4 whole entry, looked up): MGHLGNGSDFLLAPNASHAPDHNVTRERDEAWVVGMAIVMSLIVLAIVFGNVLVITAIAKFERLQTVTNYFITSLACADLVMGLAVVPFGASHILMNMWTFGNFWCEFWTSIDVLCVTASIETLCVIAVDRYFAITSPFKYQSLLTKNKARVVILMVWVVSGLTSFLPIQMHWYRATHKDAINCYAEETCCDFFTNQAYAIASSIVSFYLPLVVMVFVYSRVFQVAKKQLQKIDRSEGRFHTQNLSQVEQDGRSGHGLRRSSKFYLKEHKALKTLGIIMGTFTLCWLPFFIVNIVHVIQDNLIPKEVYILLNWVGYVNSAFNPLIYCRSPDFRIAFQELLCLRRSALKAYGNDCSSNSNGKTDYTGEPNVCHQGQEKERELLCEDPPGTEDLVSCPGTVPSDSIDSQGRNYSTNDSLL

[4] = target: Beta-1 adrenergic receptor (Cavia porcellus) (UniProt B0FL73)
[5] = target: Beta-2 adrenergic receptor (Cavia porcellus) (UniProt Q8K4Z4); test: Intrinsic activity at beta-2 adrenergic receptor in guinea pig trachea assessed as relaxation of spontaneously contracted muscle relative to papaverine
[6] = target: Beta-1 adrenergic receptor (Cavia porcellus) (UniProt B0FL73); test: Agonist activity at beta-1 adrenergic receptor in guinea pig atria assessed as increase in rate of contraction of spontaneously beating right atria at 4.8 x 10^-5 M
[7] = target: Beta-2 adrenergic receptor (Cavia porcellus) (UniProt Q8K4Z4); test: Agonist activity at beta-2 adrenergic receptor in guinea pig trachea assessed as relaxation of spontaneously contracted muscle at 4.8 x 10^-5 M; parameters: scale not given: the % may be the effect or the level left
[8] = target: Beta-1 adrenergic receptor (Cavia porcellus) (UniProt B0FL73); test: Antagonist activity at beta-1 adrenergic receptor in guinea pig atria assessed as inhibition of isoproterenol-induced increase in rate of contraction of spontaneously beating right atria at 1 x 10^-3 M
[9] = target: Beta-1 adrenergic receptor (Cavia porcellus) (UniProt B0FL73); test: Antagonist activity at beta-1 adrenergic receptor in guinea pig atria assessed as inhibition of isoproterenol-induced increase in rate of contraction of spontaneously beating right atria at 3 x 10^-7 M
[10] = target: Beta-1 adrenergic receptor (Cavia porcellus) (UniProt B0FL73); test: Antagonist activity at beta-1 adrenergic receptor in guinea pig atria assessed as inhibition of isoproterenol-induced increase in rate of contraction of spontaneously beating right atria at 8.4 x 10^-5 M
[11] = test system: Beta-2 adrenergic receptor (Cavia porcellus); test: Ratio of isoproterenol ED50 to compound ED50 for beta-2 adrenergic receptor in guinea pig trachea assessed as relaxation of spontaneously contracted muscle
[12] = test system: Canis familiaris; test: Reduction of diastolic blood pressure in iv dosed anesthetized dog; format: functional, organism-based; settings: Canis lupus familiaris; Artery
[13] = target: Beta-1 adrenergic receptor (Cavia porcellus) (UniProt B0FL73); test: Ratio of isoproterenol ED50 to compound ED50 for beta-1 adrenergic receptor in guinea pig atria assessed as increase in rate of contraction of spontaneously beating right atria
[14] = target: Beta-1 adrenergic receptor (Cavia porcellus) (UniProt B0FL73); test: Ratio of N-tert-butyl-norepinephrine ED50 to compound ED50 for beta-1 adrenergic receptor in guinea pig atria assessed as increase in rate of contraction of spontaneously beating right atria
[15] = test system: Canis familiaris; test: Reduction of heart rate in iv dosed anesthetized dog in presence of 2 mg/kg of propranolol, iv; format: functional, organism-based; parameters: dose 2 mg/kg; settings: Canis lupus familiaris
[16] = test system: Canis familiaris; test: Reduction of diastolic blood pressure in iv dosed anesthetized dog in presence of 2 mg/kg of propranolol, iv; format: functional, organism-based; parameters: dose 2 mg/kg; settings: Canis lupus familiaris; Artery
[17] = target: Beta-1 adrenergic receptor (Cavia porcellus) (UniProt B0FL73); test: Antagonist activity at beta-1 adrenergic receptor in guinea pig atria assessed as inhibition of isoproterenol-induced increase in rate of contraction of spontaneously beating right atria at 6.3 x 10^-5 M

Structure (SMILES)	Ratio ED50 [2]	ED50 [3]	ED25 [4]	further results
CC(C)NCC(O)c1ccc(O)c(NS(C)(=O)=O)c1 (centres undefined)	2.9	2.6 ×10⁻⁸ M	7.6 ×10⁻⁸ M	
CC(C)NCC(O)c1ccc(O)c(O)c1 (centres undefined)		7.1 nM		
CC(C)NCC(O)c1cccc(O)c1 (centres undefined)	0.8	4.5 ×10⁻⁸ M	3.7 ×10⁻⁸ M	
CC(C)(C)NC[C@H](O)c1ccc(O)c(O)c1	5.5	1.3 nM	7.1 nM	
CC(C)NCC(O)c1ccc(O)cc1 (centres undefined)	0.7	1.1 ×10⁻⁷ M	7.7 ×10⁻⁸ M	

The next lines start with results.

Ratio ED50 [2]	ED50 [3]	ED25 [4]	Structure (SMILES)	further results
> 27	3400 nM	9 ×10⁻⁵ M	CC(C)(C)NCC(O)COc1ccc(NS(C)(=O)=O)c(O)c1 (centres undefined)	Activity [1]: 19%; Intrinsic activity [5]: 0.8
	4.8 ×10⁻⁵ M	4.8 ×10⁻⁵ M	CC(C)(C)NCC(O)COc1ccc(CS(C)(=O)=O)cc1 (centres undefined)	Activity [6]: 0%; Activity [7]: 0%; inhibition [8]: 78%
182	6.6 nM	1200 nM	CC(C)(C)NCC(O)COc1ccc(O)c(NS(C)(=O)=O)c1 (centres undefined)	inhibition [9]: 44%
3.8	1.3 ×10⁻⁸ M	5 ×10⁻⁸ M	CC(C)(C)NCC(O)COc1ccc(O)cc1 (centres undefined)	inhibition [10]: Active
0.034	3.2 ×10⁻¹⁰ M	1.1 ×10⁻¹¹ M	CC(C)(C)NCC(O)COc1ccc(O)c(O)c1 (centres undefined)	Ratio ED50 [11]: 22; Activity [12]: Active; Ratio ED50 [13]: 310; Ratio ED50 [14]: 650; Activity [15]: inactive; Activity [16]: inactive
26	2.1 ×10⁻⁸ M	5.4 ×10⁻⁷ M	CC(C)(C)NCC(O)COc1cccc(O)c1 (centres undefined)	inhibition [17]: Active
